Tests used:
Assay in all cases: Test E pre-/postemergence herbicide test
[1] = system: green foxtail; assay type: in vivo, Setaria viridis
Procedure, shortened: (§1)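 Greenhouse response scored visually 12 to 14 days after treatment versus controls, 0 meaning no effect and 100 complete control. Compounds, formulated with surfactant in a non-phytotoxic solvent blend, were sprayed either preemergence after sowing or postemergence at the 1- to 4-leaf stage (2 to 18 cm).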

[2] = system: mustard; assay type: in vivo, Brassica nigra
Procedure, shortened: as §1

[3] = system: quackgrass; assay type: in vivo, Elytrigia repens
Procedure, shortened: as §1

[4] = system: prickly sida; assay type: in vivo, Sida spinosa
Procedure, shortened: as §1

[5] = system: common chickweed; assay type: in vivo, Stellaria media
Procedure, shortened: as §1

[6] = system: common sowthistle; assay type: in vivo, Sonchus oleraceous
Procedure, shortened: as §1

[7] = system: field bindweed; assay type: in vivo, Convolvulus arvensis
Procedure, shortened: as §1

[8] = system: common ragweed; assay type: in vivo, Ambrosia elatior
Procedure, shortened: as §1

[9] = system: bermudagrass; assay type: in vivo, Cynodon dactylon
Procedure, shortened: as §1

[10] = system: barnyardgrass; assay type: in vivo, Echinochloa crus-galli
Procedure, shortened: as §1

[11] = system: common purslane; assay type: in vivo, Portulaca oleracea
Procedure, shortened: as §1

[12] = Postemergence, 500 g ai/ha, scale 0 to 100
[13] = Postemergence, 250 g ai/ha, scale 0 to 100
[14] = Preemergence, 62 g ai/ha, scale 0 to 100
[15] = Preemergence, 125 g ai/ha, scale 0 to 100
[16] = Preemergence, 250 g ai/ha, scale 0 (no effect) to 100 (complete control)
[17] = Preemergence, 500 g ai/ha, scale 0 (no effect) to 100 (complete control)
[18] = postemergence, 125 g ai/ha, scale 0 to 100
[19] = postemergence, 62 g ai/ha, scale 0 to 100

CCNC(=O)c1ccc(F)c(NC(=O)c2cn(C(C)(C)C)nc2CC)c1 [Compound 193]
Plant response rating, Foxtail, Green [1, 12]: 90 | Plant response rating, Foxtail, Green [1, 13]: 50 | Plant response rating, Foxtail, Green [1, 14]: 10 | Plant response rating, Foxtail, Green [1, 15]: 30 | Plant response rating, Foxtail, Green [1, 16]: 80 | Plant response rating, Foxtail, Green [1, 17]: 100 | Plant response rating, Foxtail, Green [1, 18]: 20 | Plant response rating, Foxtail, Green [1, 19]: 10 | Plant response rating, Black Mustard [2, 12]: 100 | Plant response rating, Black Mustard [2, 13]: 95 | Plant response rating, Black Mustard [2, 14]: 80 | Plant response rating, Black Mustard [2, 15]: 100 | Plant response rating, Black Mustard [2, 16]: 100 | Plant response rating, Black Mustard [2, 17]: 100 | Plant response rating, Black Mustard [2, 18]: 95 | Plant response rating, Black Mustard [2, 19]: 60 | Plant response rating, Quackgrass [3, 12]: 80 | Plant response rating, Quackgrass [3, 13]: 80 | Plant response rating, Quackgrass [3, 14]: 10 | Plant response rating, Quackgrass [3, 15]: 60 | Plant response rating, Quackgrass [3, 16]: 70 | Plant response rating, Quackgrass [3, 17]: 95 | Plant response rating, Quackgrass [3, 18]: 70 | Plant response rating, Quackgrass [3, 19]: 0 | Plant response rating, Prickly Sida [4, 12]: 95 | Plant response rating, Prickly Sida [4, 13]: 75 | Plant response rating, Prickly Sida [4, 14]: 20 | Plant response rating, Prickly Sida [4, 15]: 70 | Plant response rating, Prickly Sida [4, 16]: 70 | Plant response rating, Prickly Sida [4, 17]: 95 | Plant response rating, Prickly Sida [4, 18]: 60 | Plant response rating, Prickly Sida [4, 19]: 60 | Plant response rating, Chickweed [5, 12]: 100 | Plant response rating, Chickweed [5, 13]: 95 | Plant response rating, Chickweed [5, 14]: 80 | Plant response rating, Chickweed [5, 15]: 100 | Plant response rating, Chickweed [5, 16]: 100 | Plant response rating, Chickweed [5, 17]: 100 | Plant response rating, Chickweed [5, 19]: 40 | Plant response rating, Sowthistle [6, 12]: 95 | Plant response rating, Sowthistle [6, 13]: 95 | Plant response rating, Sowthistle [6, 14]: 80 | Plant response rating, Sowthistle [6, 15]: 95 | Plant response rating, Sowthistle [6, 16]: 95 | Plant response rating, Sowthistle [6, 17]: 95 | Plant response rating, Sowthistle [6, 18]: 60 | Plant response rating, Sowthistle [6, 19]: 10 | Plant response rating, Bindweed, Field [7, 12]: 50 | Plant response rating, Bindweed, Field [7, 13]: 50 | Plant response rating, Bindweed, Field [7, 14]: 50 | Plant response rating, Bindweed, Field [7, 15]: 50 | Plant response rating, Bindweed, Field [7, 16]: 80 | Plant response rating, Bindweed, Field [7, 17]: 85 | Plant response rating, Bindweed, Field [7, 19]: 20 | Plant response rating, Ragweed [8, 12]: 75 | Plant response rating, Ragweed [8, 13]: 70 | Plant response rating, Ragweed [8, 14]: 50 | Plant response rating, Ragweed [8, 15]: 50 | Plant response rating, Ragweed [8, 16]: 80 | Plant response rating, Ragweed [8, 17]: 95 | Plant response rating, Ragweed [8, 18]: 30 | Plant response rating, Ragweed [8, 19]: 10 | Plant response rating, Bermudagrass [9, 12]: 95 | Plant response rating, Bermudagrass [9, 13]: 90 | Plant response rating, Bermudagrass [9, 14]: 85 | Plant response rating, Bermudagrass [9, 15]: 100 | Plant response rating, Bermudagrass [9, 16]: 100 | Plant response rating, Bermudagrass [9, 17]: 100 | Plant response rating, Bermudagrass [9, 18]: 90 | Plant response rating, Bermudagrass [9, 19]: 60 | Plant response rating, Barnyardgrass [10, 12]: 90 | Plant response rating, Barnyardgrass [10, 13]: 80 | Plant response rating, Barnyardgrass [10, 14]: 20 | Plant response rating, Barnyardgrass [10, 15]: 75 | Plant response rating, Barnyardgrass [10, 16]: 85 | Plant response rating, Barnyardgrass [10, 17]: 95 | Plant response rating, Barnyardgrass [10, 18]: 75 | Plant response rating, Barnyardgrass [10, 19]: 10 | Plant response rating, Purslane [11, 12]: 85 | Plant response rating, Purslane [11, 13]: 60 | Plant response rating, Purslane [11, 15]: 60 | Plant response rating, Purslane [11, 16]: 100 | Plant response rating, Purslane [11, 17]: 100 | Plant response rating, Purslane [11, 18]: 60 | Plant response rating, Purslane [11, 19]: 20

CCc1nn(C(C)C)nc1C(=O)Nc1cccc(C(=O)N2CCCCC2)c1 [Compound 385]
Plant response rating, Foxtail, Green [1, 14]: 10 | Plant response rating, Foxtail, Green [1, 15]: 30 | Plant response rating, Foxtail, Green [1, 16]: 60 | Plant response rating, Black Mustard [2, 14]: 0 | Plant response rating, Black Mustard [2, 16]: 30 | Plant response rating, Quackgrass [3, 14]: 10 | Plant response rating, Quackgrass [3, 15]: 20 | Plant response rating, Quackgrass [3, 16]: 30 | Plant response rating, Prickly Sida [4, 14]: 10 | Plant response rating, Prickly Sida [4, 15]: 100 | Plant response rating, Prickly Sida [4, 16]: 100 | Plant response rating, Chickweed [5, 14]: 20 | Plant response rating, Chickweed [5, 15]: 20 | Plant response rating, Chickweed [5, 16]: 60 | Plant response rating, Sowthistle [6, 15]: 0 | Plant response rating, Sowthistle [6, 16]: 60 | Plant response rating, Bindweed, Field [7, 14]: 10 | Plant response rating, Bindweed, Field [7, 15]: 10 | Plant response rating, Bindweed, Field [7, 16]: 20 | Plant response rating, Ragweed [8, 14]: 0 | Plant response rating, Ragweed [8, 15]: 0 | Plant response rating, Ragweed [8, 16]: 0 | Plant response rating, Bermudagrass [9, 14]: 20 | Plant response rating, Bermudagrass [9, 15]: 60 | Plant response rating, Bermudagrass [9, 16]: 60 | Plant response rating, Barnyardgrass [10, 14]: 20 | Plant response rating, Barnyardgrass [10, 15]: 50 | Plant response rating, Barnyardgrass [10, 16]: 70 | Plant response rating, Purslane [11, 14]: 100 | Plant response rating, Purslane [11, 15]: 100 | Plant response rating, Purslane [11, 16]: 100

Source: patent US20060069132A1, “Azolecarboxamide herbicides” (priority 2004, published 2006)
